{"source": "patent US20100209530A1", "about": "“ANTI-ALLERGEN AGENT” (priority 2007, published 2010)", "key": {"[1]": {"target": "T1, Dermatophagoides farinae allergen (DerfII) (Dermatophagoides farinae, UniProt Q00855)", "T1 sequence (Q00855 18-146)": "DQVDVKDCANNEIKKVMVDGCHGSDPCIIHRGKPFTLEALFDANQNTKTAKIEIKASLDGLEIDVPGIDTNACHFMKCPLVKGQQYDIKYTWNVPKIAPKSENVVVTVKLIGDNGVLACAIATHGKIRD", "type": "biochemical", "settings": "1 mg of sample", "quoted_text": "(§3) The anti-allergen effect of the present invention is evaluated by a sandwich ELISA method, which is widely known as a method for detecting/quantifying an antigen, and is expressed as the percentage allergen inactivation shown in Equation 1. The initial amount of allergen means the amount of allergen used in an ELISA evaluation, and the amount of allergen remaining means the amount of allergen after contacting a sample.\n(§4) Percentage allergen inactivation=(1−amount of allergen remaining/initial amount of allergen)×100(%) <Equation 1>\nAnti-allergen effects were evaluated by a sandwich ELISA method employing Dermatophagoides farinae allergen (allergen generally called DerfII) and Cryptomeria japonica pollen allergen (allergen generally called Cryj1). […]\n1 mg or 10 mg of a sample was weighed, and 500 μL of Dermatophagoides farinae allergen (DerfII) prepared at 40 ng/mL using an antigen diluent was added thereto. […] After 30 minutes, 2N sulfuric acid was added so as to stop the reaction, and the absorbance at 490 nm was measured. The results were expressed as percentage allergen inactivation of various samples by determining the relationship between amount of allergen and absorbance from an evaluation carried out without using a sample, determining the amount of allergen remaining from the absorbance obtained when evaluating various types of samples, and calculating from equation 1."}, "[2]": {"target": "T2, Dermatophagoides farinae allergen (Den) (Dermatophagoides farinae, UniProt Q00855)", "T2 sequence (Q00855 18-146)": "T1 sequence (Q00855 18-146)", "assay": "ELISA, anti-allergen effect of processed fiber product", "type": "biochemical", "settings": "fabric after washing in 500 mL ion exchanged water 1 minute, air-dried; standardized to blank = 0", "description": "When a test target is an article comprising another substance in addition to an anti-allergen agent, such as a coating agent containing an anti-allergen agent, a resin kneaded with an anti-allergen agent, or a fiber having an anti-allergen agent attached thereto, a blank test is carried out using the same article except that the anti-allergen agent is excluded, and other measurement results may be standardized so that the percentage allergen inactivation of the blank test becomes 0. In this case, as long as it is stated that a measurement result is standardized, the value after standardization may be used as the percentage allergen inactivation.\nThe anti-allergen effects of a processed fiber product were evaluated as percentage anti-allergen inactivation from Equation 1 above by measuring absorbance by the same ELISA method as for a solid acid powder using Dermatophagoides farinae allergen (Den) as the allergen and dividing […] of fiber into 8, and comparing with the absorbance when a fiber product having no solid acid added thereto was used."}, "[3]": {"assay": "Yellowness (YI value, JIS-K7103-1977)", "type": "physicochemical", "settings": "powder", "source_text": "With regard to a preferred yellowness, the YI value in accordance with JIS-K7103-1977 is preferably 50 or less, more preferably 20 or less, and yet more preferably 15 or less."}, "allergen": {"tested_on": "allergen", "assay": "Allergen inactivating effect after standing in PBS (discoloration test)", "type": "biochemical", "settings": "1 mg after 3 days in 0.5 mL PBS at room temperature", "description": "(§1) 1 mg of anti-allergen agent (1) of Example 2-1 was placed in 0.5 mL of PBS (pH 7.29, containing 0.1% Tween 20 and 0.001% BSA) and allowed to stand at room temperature for 3 days, color change and allergen inactivating effect were then measured, and the results are shown in Table 7.\n(§2) 1 mg of tannic acid was placed in 0.5 mL of PBS (pH 7.29, containing 0.1% Tween 20 and 0.001% BSA) and allowed to stand at room temperature for 3 days, color change and allergen inactivating effect were then measured, and the results are shown in Table 7."}, "[4]": {"target": "T3, Cryptomeria japonica pollen allergen (Cryj1) (Cryptomeria japonica, UniProt P18632)", "T3 sequence (P18632 22-374)": "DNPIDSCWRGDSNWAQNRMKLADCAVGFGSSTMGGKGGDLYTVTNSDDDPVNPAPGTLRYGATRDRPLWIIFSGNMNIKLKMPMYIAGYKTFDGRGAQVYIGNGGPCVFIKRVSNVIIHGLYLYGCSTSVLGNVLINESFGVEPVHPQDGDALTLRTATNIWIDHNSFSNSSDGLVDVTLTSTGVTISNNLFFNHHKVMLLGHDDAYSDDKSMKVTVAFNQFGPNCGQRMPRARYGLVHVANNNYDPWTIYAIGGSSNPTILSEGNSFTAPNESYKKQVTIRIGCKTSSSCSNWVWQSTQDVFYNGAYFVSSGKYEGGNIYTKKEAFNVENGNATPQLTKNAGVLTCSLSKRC", "type": "biochemical", "settings": "1 mg of sample", "quoted_text": "as §3, §4\nThe test procedure for the sandwich ELISA method when Cryptomeria japonica pollen allergen was used was as follows.\n1 mg or 10 mg of a sample was weighed, and 500 μL of Cryptomeria japonica pollen allergen (Cryj1) prepared at 10 ng/mL using an antigen diluent was added thereto. […] After 2 hours, the antibody liquid was discarded, each well was washed with washing buffer, a substrate liquid was added to each well, and the wells were allowed to stand at room temperature. After 10 minutes, 2N sulfuric acid was added so as to stop the reaction, and the absorbance at 490 nm was measured. The results are expressed as percentage allergen inactivation of various types of samples by calculating from Equation 1 by the same method as for Dermatophagoides farinae allergen."}, "[5]": {"assay": "Discoloration test in PBS or ion exchanged water", "type": "physicochemical", "description": "as §1\n1 mg of anti-allergen agent (1) of Example 2-1 was placed in 0.5 mL of ion exchanged water (pH 6.37) and allowed to stand at room temperature for 7 days, color change was then examined, and the result is shown in Table 7.\nas §2\n1 mg of tannic acid was placed in 0.5 mL of ion exchanged water (pH 6.37) and allowed to stand at room temperature for 7 days, color change was examined, and the result is shown in Table 7."}}}
{"molecule": "O=C(OC[C@H]1O[C@@H](OC(=O)c2cc(O)c(O)c(OC(=O)c3cc(O)c(O)c(O)c3)c2)[C@H](OC(=O)c2cc(O)c(O)c(OC(=O)c3cc(O)c(O)c(O)c3)c2)[C@@H](OC(=O)c2cc(O)c(O)c(OC(=O)c3cc(O)c(O)c(O)c3)c2)[C@@H]1OC(=O)c1cc(O)c(O)c(OC(=O)c2cc(O)c(O)c(O)c2)c1)c1cc(O)c(O)c(OC(=O)c2cc(O)c(O)c(O)c2)c1", "note": "[Comparative Example 2-1, Tannic Acid]", "values": [{"measurement": "Percentage allergen inactivation (%) DerfII", "setting": "[1]", "value": 95, "unit": "%"}, {"measurement": "Percentage allergen inactivation (%)", "setting": "[2]", "value": "activity disappeared after washing"}, {"measurement": "Yellowness", "setting": "[3]", "value": 71.28}, {"measurement": "Yellowness", "setting": "[3]; listed as tannic acid", "value": 71.8}, {"measurement": "Percentage allergen inactivation (%)", "setting": "allergen", "value": "Less than 50%"}, {"measurement": "Percentage allergen inactivation (%) Cryj1", "setting": "[4]", "value": 97, "unit": "%"}, {"measurement": "Color of solution (after evaluation)", "setting": "[5]; 1 mg in 0.5 mL PBS pH 7.29 (0.1% Tween 20, 0.001% BSA), room temperature, 3 days", "value": "Brown"}, {"measurement": "Color of solution (after evaluation)", "setting": "[5]; 1 mg in 0.5 mL ion exchanged water pH 6.37, room temperature, 7 days", "value": "Brown"}]}
